One molecule from patent US20240277695A1, “FOXO INHIBITORS FOR USE IN THE TREATMENT OF DISEASES CAUSED BY ABNORMAL PROCESSING OF TDP-43 AND/OR FUS PROTEINS” (Administración General de la Comunidad Autónoma de Euskadi, priority 2020, published 2024) can be followed below.

“Also recorded” adds a separate entry of the source.

The subject of one assay is MYOD. Description: MYOD expression in silenced myoblasts. Type of assay: cell-based, human. The conditions noted are these: 30 nM; shTDP-43 and shFUS-treated myoblasts. An excerpt: (§1) Myoblasts treated with control shRNA differentiated and formed MYHC-positive myotubes 2 days after reaching 100% confluence (FIG. 1I). However, TDP-43 and FUS knockdown affected the natural capacity of cultured myoblasts to fuse and form myotubes: shTDP-43-treated myoblasts remained undifferentiated for at least 2 days after reaching 100% confluence, and shFUS-treated myoblasts formed fewer myotubes (FIG. 1I). […] We then analyzed levels of MYOD and MYOG (Myogenin), two transcription factors that are required for myoblast commitment, differentiation and fusion, respectively.
(§2) In addition, treatment with the AS1842856 inhibitor modifies the expression of some of the FoxO-regulated genes that are crucial for proper myogenic differentiation.

Assay [1] has as its system Drosophila flies with muscle-conditioned silencing of Caz or Tbph. Description: Climbing (locomotor activity) test in flies with muscle-conditioned silencing of Caz or Tbph. Type of assay: in vivo, Drosophila melanogaster. The note with it: 30 μM; Caz- and Tbph-silenced flies; more pronounced in Tbph lines. An excerpt:
FIG. 7. Foxo inhibition improves muscle function and lifespan in Drosophila flies with muscle-conditioned deficiency of TDP-43 or FUS. […] F, Caz or Tbph-silenced flies have reduced survival times, as indicated by Kaplan-Meier curves (left panel) and median lifespan (right panel) (n=100 flies per group). […] This effect was particularly noticeable in iCaz and iTbph^attp40) fly lines (n=100 flies per group). *p<0.05: **p<0.01, ***p<0.001.
After knowing that FoxO inhibition provides benefits to muscle cells in vitro, we wanted to further test the effects of targeting FoxO factors on muscle function under the context of TDP-43 or FUS loss-of-function in vivo. To that purpose, we generated various Drosophilamodels with muscle-conditioned silencing of either Cabeza (Caz) or Tbph genes, which are orthologs of human FUS or TARDBP, respectively. […] Drosophila has only one ortholog for mammalian FoxO factors, which is called foxo. Although the affinity of AS1842856 for Drosophila foxo has never been tested, the fact that FoxO DNA-binding sites, with which the inhibitor interacts, are well conserved among species, including Drosophila melanogaster (FIG. 7B) provides enough rationale to test its efficacy in Drosophila models.

Assay [2] concerns shTDP-43-treated myoblasts. Description: Glu/Asp and Glu/Gln metabolite ratios by HPLC-MS and 1H-NMR in silenced myoblasts. Type of assay: cell-based, human. The conditions noted are these: 30 nM. An excerpt: One of the key endogenous factors that keep glycolytic flux ongoing is cytosolic NAD^+. In anaerobic muscles, malate-aspartate and glycerol-phosphate shuttles as well as glutaminolysis are main metabolic pathways that recycle cytosolic NAD+to support glycolysis (FIG. 3A). […] With respect malate-aspartate shuttle and glutaminolysis, TDP-43 silencing led to reduced levels of OGC1 (oxoglutarate carrier 1), GOT1 (glutamic-oxaloacetic transaminase), MDH1 (malate dehydrogenase), and ME1 (malic enzyme), but increased levels of glutaminase (FIG. 3B). […] We have also analyzed intermediate metabolites of malate-aspartate shuttle and glutaminolysis, including glutamate (Glu), glutamine (Gln) and aspartate (Asp), by means of HPLC-MS and ^1H-NMR, and calculated the ratios Glu/Asp and Glu/Gln to estimate fluxes of these reactions. […] In this sense, an abnormal glutaminolysis may account for the defects of NAD^+ recycling in FUS-silenced myoblasts.
We next explored the consequences of pharmacological or genetic inhibition of FoxO on metabolism and myogenesis in TDP-43 and FUS-silenced myoblasts. We treated all the different models of myoblasts with the compound AS1842856 at 30 nM during proliferation and let them differentiate, adding the compound at the same concentration every 2 days for 8 days. […]

Assay [3] deals with TDP-43 or FUS-silenced human immortalized myoblasts (cell line 8220). Description: Myogenic differentiation (MYHC-positive myotubes, differentiation index) of silenced myoblasts. Type of assay: cell-based. The conditions noted are these: 30 nM.
Excerpt: We then studied the effect of gene silencing on the myogenic process. Myogenesis was first induced by an established protocol consisting on medium replacement, in which myoblasts were exposed to differentiation medium two days after infection with lentiviral particles. However, TDP-43 and FUS knockdown myoblasts were not able to survive to the differentiating challenge. Then, we switched to a more physiologically-relevant myogenic scenario that consists on allowing spontaneous differentiation and fusion when myoblasts reach 100% confluence. Lentiviral particles of scramble shRNA, shTDP-43 or shFUS were added to the medium when […] myoblasts were at 30-40% confluence (FIG. 1D).
as §1
We next explored the consequences of pharmacological or genetic inhibition of FoxO on metabolism and myogenesis in TDP-43 and FUS-silenced myoblasts. We treated all the different models of myoblasts with the compound AS1842856 at 30 nM during proliferation and let them differentiate, adding the compound at the same concentration every 2 days for 8 days. At the selected concentration, this compound binds selectively to the dephosphorylated FoxO1, and to less extent dephosphorylated FoxO3, interfering with DNA interaction and thereby resulting in inhibition of FoxO transactivation.
as §2

Assay [4] relates to Drosophila with motor neuron-specific (OK6 promoter) Tbph silencing. Description: Locomotor activity (climbing) assay in motor neuron-specific Tbph/Caz knockdown flies. Type of assay: in vivo, Drosophila melanogaster. The note with it: 30 μM, 20 days-old flies. An excerpt: FIG. 9. FOXO1inh rescues (AS1842856) impaired climbing capacity induced by motor neuron-specific knockdown of ALS-causing ortholog genes in Drosophila melanogaster. Represented two different models of Tbph silence (silencing two different locus of Tbph gene) and one Caz (FUS ortholog) A) Locomotor activity of motor neuron specific (OK6 promoter) Tbph silencing Drosophila melanogaster using iTbph(p(KK08354)) plasmid. Generated genotypes; UAS-Dicer2-+-OK6-GAL4 (control) and UAS-Dicer2-iTbph^p(KK08354)-OK6-GAL4 (iTbph^p(KK08354)). B) Locomotor activity of motor neuron specific (OK6 promoter) Tbph silencing Drosophila melanogaster using iTbph(attP40) plasmid.; UAS-Dicer2-+-OK6-GAL4 (control) and UAS-Dicer2-iTbph^(attP40)-OK6-GAL4 (iTbph^(attP40)). C) Locomotor activity of motor neuron specific (OK6 promoter) Tbph silencing Drosophila melanogaster using iCaz plasmid.; UAS-Dicer2-+-OK6-GAL4 (control) and UAS-Dicer2-iCaz-OK6-GAL4 (iCaz). Assays were performed at 20 days-old flies and repeated 5 times each tube (5 flies/tube). Data are expressed as the percentage of flies passing for each group.
Two-way ANOVA was performed together Bonferroni post-hoc multiple comparison (*p<0.05; **p<0.01; ***p<0.001) or T-test for two groups comparisons (*p<0.05; **p<0.01; ***p<0.001). Values are expressed as mean+SD.
One of the most important features of ALS is motor neuron degeneration. […]

On to `CCn1cc(C(=O)O)c(=O)c2c(N)c(F)c(NC3CCCCC3)cc21` [AS1842856], for which the “expression of MYOD” value in the assay with MYOD is on record as “increased the expression of MYOD”. In addition, the “muscle function (climbing activity)” value in assay [1] is listed as “strong benefits on muscle function”. For the same molecule, the Glu/Asp ratio entry in assay [2] is “increase Glu/Asp ratio to the levels of control myoblasts”. For the same molecule, in assay [2], the Glu/Gln ratio entry is given as “without affecting Glu/Gln ratio”. Further, the figures for the “myogenic capacity (MYHC-positive myotubes, differentiation index)” value in assay [3] (FUS-silenced myoblasts), in assay [3] (TDP-43 silenced myoblasts) and in assay [3] (control myoblasts) were “improved the myogenic capacity”, “rescued the myogenic arrest” and “little effects”, respectively. The “locomotor impairments in climbing assay” value in assay [4] is on record as “rescues; also recorded: fully rescue locomotor impairments”.
